# Reference: ChEMBL document CHEMBL1764984 (J Med Chem, 2011)
# Legend:
# [1] = AUC (infinity) in Hanover-Wistar rat at 10 mg/kg, po; type: ADME, organism-based; set-up: dose 10 mg/kg, route oral, time infinity; conditions: plasma
# [2] = Plasma protein binding in Hanover-Wistar rat by untrafiltration method; type: ADME, cell-free; conditions: read-out: PPB (converted)
# [3] = Tmax in Beagle dog at 10 mg/kg, po; type: ADME, organism-based, Canis lupus familiaris; set-up: dose 10 mg/kg, route oral; conditions: in vivo
# [4] = Cmax in Beagle dog at 10 mg/kg, po; type: ADME, organism-based, Canis lupus familiaris; set-up: dose 10 mg/kg, route oral; conditions: in vivo
# [5] = Half life in Beagle dog at 10 mg/kg, po; type: ADME, organism-based, Canis lupus familiaris; set-up: dose 10 mg/kg, route oral; conditions: in vivo
# [6] = AUC (infinity) in Beagle dog at 10 mg/kg, po; type: ADME, organism-based, Canis lupus familiaris; set-up: time infinity, dose 10 mg/kg, route oral; conditions: plasma
# [7] = Oral bioavailability in Beagle dog at 10 mg/kg; type: ADME, organism-based, Canis lupus familiaris; conditions: in vivo
# [8] = Clearance in Beagle dog at 10 mg/kg, iv; type: ADME, organism-based, Canis lupus familiaris; set-up: dose 10 mg/kg, route intravenous; conditions: in vivo
# [9] = Volume of distribution at steady state in Beagle dog at 10 mg/kg, iv; type: ADME, organism-based, Canis lupus familiaris; set-up: dose 10 mg/kg, route intravenous; conditions: in vivo, read-out: Vdss
# [10] = Plasma protein binding in Beagle dog by untrafiltration method; type: ADME, cell-free, Canis lupus familiaris; conditions: read-out: PPB (converted)
# [11] = biological target: Mitogen-activated protein kinase 11 (Homo sapiens, UniProt Q15759); experiment: Inhibition of P38beta
# Chain of Mitogen-activated protein kinase 11 (Q15759 whole entry): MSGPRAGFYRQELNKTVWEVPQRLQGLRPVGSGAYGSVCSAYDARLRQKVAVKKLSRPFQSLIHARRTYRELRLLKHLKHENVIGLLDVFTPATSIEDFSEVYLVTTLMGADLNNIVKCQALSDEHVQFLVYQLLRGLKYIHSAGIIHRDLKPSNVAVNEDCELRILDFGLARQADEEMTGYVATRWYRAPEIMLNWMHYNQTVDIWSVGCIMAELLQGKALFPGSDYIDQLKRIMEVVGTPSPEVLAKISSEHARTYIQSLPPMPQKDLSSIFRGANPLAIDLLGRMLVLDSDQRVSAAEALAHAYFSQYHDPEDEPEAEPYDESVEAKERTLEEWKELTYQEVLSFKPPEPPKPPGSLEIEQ
# [12] = biological target: Atypical kinase COQ8A, mitochondrial (Homo sapiens, UniProt Q8NI60); experiment: Inhibition of ADCK3
# Chain of Atypical kinase COQ8A, mitochondrial (Q8NI60 whole entry, canonical isoform): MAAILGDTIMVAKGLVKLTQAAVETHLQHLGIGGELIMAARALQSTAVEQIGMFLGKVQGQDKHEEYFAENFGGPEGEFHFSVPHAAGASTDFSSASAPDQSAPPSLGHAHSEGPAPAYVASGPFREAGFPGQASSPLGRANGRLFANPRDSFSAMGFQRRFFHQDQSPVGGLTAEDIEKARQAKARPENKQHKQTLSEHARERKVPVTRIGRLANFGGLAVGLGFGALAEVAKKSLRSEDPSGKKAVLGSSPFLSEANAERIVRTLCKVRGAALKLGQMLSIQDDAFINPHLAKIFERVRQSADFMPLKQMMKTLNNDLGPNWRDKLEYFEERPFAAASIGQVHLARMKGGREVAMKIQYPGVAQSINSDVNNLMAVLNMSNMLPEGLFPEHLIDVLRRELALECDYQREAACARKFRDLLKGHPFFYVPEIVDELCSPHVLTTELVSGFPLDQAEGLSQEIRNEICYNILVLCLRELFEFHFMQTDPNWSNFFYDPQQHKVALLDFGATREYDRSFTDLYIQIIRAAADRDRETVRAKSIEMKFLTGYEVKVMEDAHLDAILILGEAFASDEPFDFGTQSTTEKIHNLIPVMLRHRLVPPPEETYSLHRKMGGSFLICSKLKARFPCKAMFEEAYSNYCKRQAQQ
# [13] = biological target: Casein kinase I isoform epsilon (Homo sapiens, UniProt P49674); experiment: Inhibition of CSNK1epsilon
# [14] = biological target: Epithelial discoidin domain-containing receptor 1 (Homo sapiens, UniProt Q08345); experiment: Inhibition of DDR1
# Chain of Epithelial discoidin domain-containing receptor 1 (Q08345 whole entry, the tested form may be a part): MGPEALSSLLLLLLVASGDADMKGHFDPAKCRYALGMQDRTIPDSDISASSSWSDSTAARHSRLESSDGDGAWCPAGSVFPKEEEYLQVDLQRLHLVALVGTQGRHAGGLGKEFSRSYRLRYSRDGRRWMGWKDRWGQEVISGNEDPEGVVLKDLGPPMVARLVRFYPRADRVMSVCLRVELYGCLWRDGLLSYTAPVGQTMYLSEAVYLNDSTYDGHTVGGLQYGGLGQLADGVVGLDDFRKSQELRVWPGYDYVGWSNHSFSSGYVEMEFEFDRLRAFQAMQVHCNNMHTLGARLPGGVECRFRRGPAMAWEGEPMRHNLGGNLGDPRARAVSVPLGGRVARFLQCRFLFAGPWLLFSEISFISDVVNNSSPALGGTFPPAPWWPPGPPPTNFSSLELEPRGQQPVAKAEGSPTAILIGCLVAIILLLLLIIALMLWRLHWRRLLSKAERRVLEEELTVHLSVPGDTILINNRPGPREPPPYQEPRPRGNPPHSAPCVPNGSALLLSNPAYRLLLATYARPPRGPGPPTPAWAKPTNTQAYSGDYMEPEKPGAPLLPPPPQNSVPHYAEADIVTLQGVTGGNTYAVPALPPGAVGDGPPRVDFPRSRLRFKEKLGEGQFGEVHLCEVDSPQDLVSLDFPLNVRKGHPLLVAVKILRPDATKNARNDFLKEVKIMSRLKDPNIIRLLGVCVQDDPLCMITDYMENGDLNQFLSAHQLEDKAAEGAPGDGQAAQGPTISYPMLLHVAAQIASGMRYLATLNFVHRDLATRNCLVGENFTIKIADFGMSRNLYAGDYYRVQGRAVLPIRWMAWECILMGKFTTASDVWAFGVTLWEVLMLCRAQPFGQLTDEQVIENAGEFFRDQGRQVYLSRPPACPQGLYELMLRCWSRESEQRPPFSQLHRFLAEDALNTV
# [15] = biological target: Mitogen-activated protein kinase 10 (Homo sapiens, UniProt P53779); experiment: Inhibition of JNK3
# [16] = biological target: Serine/threonine-protein kinase NLK (Homo sapiens, UniProt Q9UBE8); experiment: Inhibition of NLK
# [17] = biological target: Ribosomal protein S6 kinase alpha-4 (Homo sapiens, UniProt O75676); experiment: Inhibition of RSK4
# Chain of Ribosomal protein S6 kinase alpha-4 (O75676 whole entry): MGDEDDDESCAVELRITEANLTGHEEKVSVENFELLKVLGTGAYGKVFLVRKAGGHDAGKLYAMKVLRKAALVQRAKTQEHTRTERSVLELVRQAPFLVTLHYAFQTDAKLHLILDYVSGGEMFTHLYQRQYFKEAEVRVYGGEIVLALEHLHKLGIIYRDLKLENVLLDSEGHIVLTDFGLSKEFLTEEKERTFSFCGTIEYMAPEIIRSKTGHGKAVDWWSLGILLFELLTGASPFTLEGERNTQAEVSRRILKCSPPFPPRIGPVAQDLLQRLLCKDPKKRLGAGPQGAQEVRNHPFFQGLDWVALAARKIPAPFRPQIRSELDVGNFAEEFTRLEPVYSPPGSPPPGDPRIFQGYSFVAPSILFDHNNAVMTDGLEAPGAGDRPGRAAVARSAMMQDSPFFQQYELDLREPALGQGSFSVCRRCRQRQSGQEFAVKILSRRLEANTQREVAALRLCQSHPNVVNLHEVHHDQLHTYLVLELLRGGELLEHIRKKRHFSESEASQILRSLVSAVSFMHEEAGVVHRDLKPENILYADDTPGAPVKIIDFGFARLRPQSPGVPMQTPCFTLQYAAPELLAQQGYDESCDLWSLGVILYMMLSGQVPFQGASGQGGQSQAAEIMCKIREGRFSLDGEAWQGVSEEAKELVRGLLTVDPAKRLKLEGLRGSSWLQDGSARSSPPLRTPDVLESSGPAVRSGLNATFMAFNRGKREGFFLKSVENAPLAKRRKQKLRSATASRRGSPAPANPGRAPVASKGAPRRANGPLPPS
# [18] = biological target: Serine/threonine-protein kinase 36 (Homo sapiens, UniProt Q9NRP7); experiment: Inhibition of STK36
# Chain of Serine/threonine-protein kinase 36 (Q9NRP7 whole entry): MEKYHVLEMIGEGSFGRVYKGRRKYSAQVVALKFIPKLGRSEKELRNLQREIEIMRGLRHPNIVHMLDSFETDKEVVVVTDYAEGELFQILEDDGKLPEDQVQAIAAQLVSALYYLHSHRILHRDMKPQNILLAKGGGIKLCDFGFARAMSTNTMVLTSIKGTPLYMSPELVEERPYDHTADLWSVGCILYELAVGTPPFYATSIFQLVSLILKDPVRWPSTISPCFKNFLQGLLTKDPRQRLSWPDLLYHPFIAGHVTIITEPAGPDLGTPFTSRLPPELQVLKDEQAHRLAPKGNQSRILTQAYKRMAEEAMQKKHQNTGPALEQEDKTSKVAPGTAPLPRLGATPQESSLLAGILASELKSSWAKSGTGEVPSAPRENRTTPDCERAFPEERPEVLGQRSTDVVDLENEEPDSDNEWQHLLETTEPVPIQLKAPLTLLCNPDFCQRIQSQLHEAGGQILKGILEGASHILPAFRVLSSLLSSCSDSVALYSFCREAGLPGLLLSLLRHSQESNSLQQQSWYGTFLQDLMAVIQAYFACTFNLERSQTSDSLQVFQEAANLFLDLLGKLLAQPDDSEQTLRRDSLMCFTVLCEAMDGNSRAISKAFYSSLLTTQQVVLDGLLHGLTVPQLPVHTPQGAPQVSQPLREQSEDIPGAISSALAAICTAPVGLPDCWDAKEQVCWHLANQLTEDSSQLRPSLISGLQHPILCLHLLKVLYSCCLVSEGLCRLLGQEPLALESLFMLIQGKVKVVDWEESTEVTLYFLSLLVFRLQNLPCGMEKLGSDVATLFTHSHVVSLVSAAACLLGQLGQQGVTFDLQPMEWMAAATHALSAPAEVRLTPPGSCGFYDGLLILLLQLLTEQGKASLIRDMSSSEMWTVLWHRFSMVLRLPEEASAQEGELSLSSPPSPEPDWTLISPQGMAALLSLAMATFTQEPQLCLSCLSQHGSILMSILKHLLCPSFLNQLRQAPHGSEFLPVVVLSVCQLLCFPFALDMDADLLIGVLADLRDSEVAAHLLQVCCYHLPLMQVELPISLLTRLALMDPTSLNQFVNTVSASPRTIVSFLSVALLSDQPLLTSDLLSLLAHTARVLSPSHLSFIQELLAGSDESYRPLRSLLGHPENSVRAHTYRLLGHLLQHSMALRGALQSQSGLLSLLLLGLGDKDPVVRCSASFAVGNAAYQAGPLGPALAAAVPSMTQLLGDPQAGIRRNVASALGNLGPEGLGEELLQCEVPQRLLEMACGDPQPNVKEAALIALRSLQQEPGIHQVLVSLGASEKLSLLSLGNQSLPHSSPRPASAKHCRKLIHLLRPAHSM
# Blood = experiment: Inhibition of TNFalpha-induced IL1-beta production in human whole blood after 2 to 5 hrs by ELISA; type: functional, tissue-based
# [19] = Aqueous solubility of the compound in phosphate buffer at pH 6.5; type: physicochemical
# [20] = Permeability of the compound from apical to basolateral side of human Caco2 cells at 10 uM after 21 days; type: ADME, cell-based; conditions: Caco-2, read-out: permeability
# [21] = Permeability of the compound from basolateral to apical side of human Caco2 cells at 10 uM after 21 days; type: ADME, cell-based; conditions: Caco-2, read-out: permeability
# Rattus norvegicus [22] = experiment: Inhibition of LPS-induced TNFalpha production in po dosed rat serum administered 30 mins before LPS challenge measured after […] by ELISA; type: functional, organism-based
# Rattus norvegicus [23] = experiment: Inhibition of LPS-induced TNFalpha production in rat serum at 3 mg/kg, po administered 30 mins before LPS challenge measured after […] by ELISA; type: functional
# THP-1 = experiment: Inhibition of LPS-induced TNFalpha production in human THP1 cells after 2 hrs by ELISA; type: functional, cell-based; conditions: THP-1, 2 h
# Rattus norvegicus [24] = experiment: Inhibition of LPS-induced IL-6 production in po dosed rat serum administered 30 mins before LPS challenge measured after […] by ELISA; type: functional, organism-based
# Rattus norvegicus [25] = experiment: Inhibition of TNF-alpha-induced IL-6 production in po dosed rat plasma administered 30 mins before TNFalpha challenge measured after 2 hrs by ELISA; type: functional, organism-based
# Rattus norvegicus [26] = experiment: Analgesic activity in po dosed rat inflammatory yeast hyperalgesia model assessed as increase in tolerance to pressure; type: functional, organism-based; conditions: po
# [27] = Tmax in cynomolgus monkey at 10 mg/kg, po; type: ADME, organism-based, Macaca fascicularis; set-up: dose 10 mg/kg, route oral; conditions: in vivo
# [28] = Cmax in cynomolgus monkey at 10 mg/kg, po; type: ADME, organism-based, Macaca fascicularis; set-up: dose 10 mg/kg, route oral; conditions: in vivo
# [29] = Half life in cynomolgus monkey at 10 mg/kg, po; type: ADME, organism-based, Macaca fascicularis; set-up: dose 10 mg/kg, route oral; conditions: in vivo
# [30] = AUC (infinity) in cynomolgus monkey at 10 mg/kg, po; type: ADME, organism-based, Macaca fascicularis; set-up: time infinity, dose 10 mg/kg, route oral; conditions: plasma
# [31] = Oral bioavailability in cynomolgus monkey at 10 mg/kg; type: ADME, organism-based, Macaca fascicularis; conditions: in vivo
# [32] = Clearance in cynomolgus monkey at 10 mg/kg, iv; type: ADME, organism-based, Macaca fascicularis; set-up: dose 10 mg/kg, route intravenous; conditions: in vivo
# [33] = Volume of distribution at steady state in cynomolgus monkey at 10 mg/kg, iv; type: ADME, organism-based, Macaca fascicularis; set-up: dose 10 mg/kg, route intravenous; conditions: in vivo, read-out: Vdss
# [34] = Plasma protein binding in cynomolgus monkey by untrafiltration method; type: ADME, cell-free, Macaca fascicularis; conditions: read-out: PPB (converted)
# Cytochrome P450 1A2 = Cytochrome P450 1A2 (Homo sapiens, UniProt P05177); experiment: Inhibition of human CYP1A2; type: ADME
# Cytochrome P450 2C9 = Cytochrome P450 2C9 (Homo sapiens, UniProt P11712); experiment: Inhibition of human CYP2C9; type: ADME
# Cytochrome P450 2C19 = Cytochrome P450 2C19 (Homo sapiens, UniProt P33261); experiment: Inhibition of human CYP2C19; type: ADME
# Chain of Cytochrome P450 2C19 (P33261 whole entry): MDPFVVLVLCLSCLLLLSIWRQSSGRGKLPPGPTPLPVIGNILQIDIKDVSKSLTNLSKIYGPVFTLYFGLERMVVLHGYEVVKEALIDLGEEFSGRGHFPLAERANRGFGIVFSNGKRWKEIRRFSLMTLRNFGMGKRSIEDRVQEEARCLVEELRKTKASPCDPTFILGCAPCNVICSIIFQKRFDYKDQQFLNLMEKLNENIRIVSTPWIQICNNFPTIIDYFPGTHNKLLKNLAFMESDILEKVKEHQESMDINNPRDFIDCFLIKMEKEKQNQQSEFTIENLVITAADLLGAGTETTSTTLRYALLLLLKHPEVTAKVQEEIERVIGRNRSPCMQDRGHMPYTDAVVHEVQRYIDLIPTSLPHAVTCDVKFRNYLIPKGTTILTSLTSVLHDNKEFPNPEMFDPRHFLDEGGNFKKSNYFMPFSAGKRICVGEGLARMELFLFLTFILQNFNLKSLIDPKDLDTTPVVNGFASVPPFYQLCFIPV
# Cytochrome P450 2D6 = Cytochrome P450 2D6 (Homo sapiens, UniProt P10635); experiment: Inhibition of human CYP2D6; type: ADME
# Cytochrome P450 3A4 = Cytochrome P450 3A4 (Homo sapiens, UniProt P08684); experiment: Inhibition of human CYP3A4; type: ADME
# Chain of Cytochrome P450 3A4 (P08684 whole entry): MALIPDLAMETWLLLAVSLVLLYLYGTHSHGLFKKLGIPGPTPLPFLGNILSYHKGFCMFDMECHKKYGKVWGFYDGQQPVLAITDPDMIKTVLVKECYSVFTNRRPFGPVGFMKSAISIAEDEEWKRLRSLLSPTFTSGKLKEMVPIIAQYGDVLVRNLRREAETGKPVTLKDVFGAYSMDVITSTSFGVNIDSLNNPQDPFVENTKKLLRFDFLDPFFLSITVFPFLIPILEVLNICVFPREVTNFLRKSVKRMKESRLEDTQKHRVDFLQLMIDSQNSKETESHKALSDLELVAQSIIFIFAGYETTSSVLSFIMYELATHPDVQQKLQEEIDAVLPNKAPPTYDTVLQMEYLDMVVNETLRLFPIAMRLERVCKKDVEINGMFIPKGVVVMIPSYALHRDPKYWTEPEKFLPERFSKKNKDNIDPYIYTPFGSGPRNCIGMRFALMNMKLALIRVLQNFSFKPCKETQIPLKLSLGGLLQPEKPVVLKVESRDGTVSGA
smiles,measurement,setting,value
Cl.Cn1c(=O)c(Oc2ccc(F)cc2F)cc2cnc(NC3CCOCC3)nc21 [R-1487 HYDROCHLORIDE],AUC(0-inf),[1],2350 ng·h/mL
same,fraction unbound,[2],0.044
same,Tmax,[3],0.5 h
same,Cmax,[4],110 ng/mL
same,half-life,[5],2.23 h
same,AUC(0-inf),[6],310 ng·h/mL
same,bioavailability,[7],10.3%
same,clearance,[8],54.2 mL/min/kg
same,Vd,[9],4.65 L/kg
same,fraction unbound,[10],0.096
Cn1c(=O)c(Oc2ccc(F)cc2F)cc2cnc(NC3CCOCC3)nc21 [R-1487],Kd,[11],29 nM
same,Kd,[12],320 nM
same,Kd,[13],> 1000 nM
same,Kd,[14],270 nM
same,Kd,[15],3 nM
same,Kd,[16],6 nM
same,Kd,[17],73 nM
same,Kd,[18],330 nM
same,IC50,Blood,170 nM
same,solubility,[19],6 µg/mL
same,Papp A→B at 10 µM,[20],33 ×10⁻⁶ cm/s
same,Papp B→A at 10 µM,[21],23.7 ×10⁻⁶ cm/s
same,EC50,Rattus norvegicus [22],30 nM
same,ED50,Rattus norvegicus [22]; po,0.8 mg/kg
same,inhibition in vivo at 3 mg/kg,Rattus norvegicus [23],68%
same,IC50,THP-1,47 nM
same,EC50,Rattus norvegicus [24],10 nM
same,ED50,Rattus norvegicus [24]; po,0.4 mg/kg
same,EC50,Rattus norvegicus [25],20 nM
same,ED50,Rattus norvegicus [25]; po,0.4 mg/kg
same,ED50,Rattus norvegicus [26],5.5 mg/kg
same,Tmax,[27],4.67 h
same,Cmax,[28],1560 ng/mL
same,half-life,[29],22.5 h
same,AUC(0-inf),[30],29400 ng·h/mL
same,bioavailability,[31],51.6%
same,clearance,[32],3.05 mL/min/kg
same,Vd,[33],2.73 L/kg
same,fraction unbound,[34],0.046
same,IC50,Cytochrome P450 1A2,> 40000 nM
same,IC50,Cytochrome P450 2C9,> 40000 nM
same,IC50,Cytochrome P450 2C19,> 40000 nM
same,IC50,Cytochrome P450 2D6,> 40000 nM
same,IC50,Cytochrome P450 3A4,> 40000 nM
